Measured values published in US20070049635A1 (priority 2003, published 2007).
Where two headings read alike, the source gives them in different places.

Tests used:
Pyricularia oryzae [1] = assay type: in vivo; details: wettable powder diluted to 200 ppm sprayed on rice pots (Koshihikari, 2-leaf stage); spore spray-inoculation; examined after 7 days
Pyricularia oryzae [2] = assay type: in vivo; details: granules applied to water surface at 1.5 kg/10 ares; rice Koshihikari; inoculated 30 days after application; lesions examined after 1 week

| Molecule | Effect (preventive value) (Pyricularia oryzae [1]) | Effect (preventive value) (Pyricularia oryzae [2]) |
| --- | --- | --- |
| Cc1ccc(C(=O)NCC(NC(=O)OCCI)C(C)C)cc1 (stereo not shown) [compound 5] | A (80% or more) |  |
| C=C(Cl)COC(=O)NC(CNC(=O)c1ccc(C)cc1)C(C)C (stereo not shown) [compound 15] | A (80% or more) | A (80% or more) |
| CC(C)C(CNC(=O)c1cc2ccccc2o1)NC(=O)OCC(F)(F)F (stereo not shown) [compound 28] | A (80% or more) | A (80% or more) |
| Cc1ccc(C(=O)NCC(NC(=O)OCC(F)(F)F)C2CCCC2)cc1 (stereo not shown) [compound 36] | A (80% or more) |  |
| CC(C)C(CNC(=O)c1cc2ccccc2s1)NC(=O)OCC(F)(F)F (stereo not shown) [compound 34] | A (80% or more) |  |
| N-(2,2,2-trifluoroethyloxycarbonyl)-N′-(4-methylbenzoyl)-3-methyl-1,2-butanediamine [Compound No. 6] | A (80% or more) | A (80% or more) |
| Cc1ccc(C(=O)NCC(NC(=O)Oc2ccc3ccccc3c2)C(C)C)cc1 (stereo not shown) [Formula (7), reference compound] | C (less than 50%) | C (less than 50%) |
| N-(chloromethyloxycarbonyl)-N′-(4-methylbenzoyl)-3-methyl-1,2-butanediamine [Compound No. 1] |  | A (80% or more) |
| CCC(C)C(CNC(=O)c1cc2ccccc2o1)NC(=O)OCC(F)(F)F (stereo not shown) [compound 32] | A (80% or more) |  |
| Cc1ccc(C(=O)NCC(NC(=O)OCCCl)C(C)C)cc1 (stereo not shown) [compound 3] | A (80% or more) |  |
| Cc1ccc(C(=O)NCC(NC(=O)OCCF)C(C)C)cc1 (stereo not shown) [compound 2] | A (80% or more) | A (80% or more) |
| N-(2,2,2-trichloroethyloxycarbonyl)-N′-(4-methylbenzoyl)-3-methyl-1,2-butanediamine [Compound No. 7] | A (80% or more) |  |
| CC(C)(C)C(CNC(=O)c1cc2ccccc2o1)NC(=O)OCC(F)(F)F (stereo not shown) [compound 31] | A (80% or more) | A (80% or more) |
| Cc1ccc(C(=O)NCC(NC(=O)OCC(F)(F)F)C(C)(C)C)cc1 (stereo not shown) [compound 24] | A (80% or more) | A (80% or more) |
| CCC(C)C(CNC(=O)c1ccc(C)cc1)NC(=O)OCC(F)(F)F (stereo not shown) [compound 25] | A (80% or more) | A (80% or more) |
| Cc1ccc(C(=O)NCC(NC(=O)OC(CF)CF)C(C)C)cc1 (stereo not shown) [compound 9] | A (80% or more) |  |
| Cc1ccc(C(=O)NC(CNC(=O)OC(C(F)(F)F)C(F)(F)F)C(C)C)cc1 (stereo not shown) [Compound No. 8, N-(1,1,1,3,3,3-hexafluoro-2-propyloxycarbonyl)-N′-(4-methylbenzoyl)-3-methyl-1,2-butanediamine] | A (80% or more) |  |
| Cc1ccc(C(=O)NCC(NC(=O)OC(C)C(F)(F)F)C(C)C)cc1 (stereo not shown) [compound 30] | A (80% or more) | A (80% or more) |
| Cc1ccc(C(=O)NC(CNC(=O)OC2CCCCC2Cl)C(C)C)cc1 (stereo not shown) [Compound No. 17, N-(2-chlorocyclohexyloxycarbonyl)-N′-(4-methylbenzoyl)-3-methyl-1,2-butanediamine] | A (80% or more) |  |
| CCC(CC)C(CNC(=O)c1ccc(C)cc1)NC(=O)OCC(F)(F)F (stereo not shown) [compound 39] | A (80% or more) |  |
| Cc1ccc(C(=O)NCC(NC(=O)OCCCCl)C(C)C)cc1 (stereo not shown) [compound 10] | A (80% or more) |  |
| Cc1ccc(C(=O)NCC(NC(=O)OC(CBr)CBr)C(C)C)cc1 (stereo not shown) [compound 11] | B (50% or more and less than 80%) |  |
| CSCC(C)OC(=O)NC(CNC(=O)c1ccc(C)cc1)C(C)C (stereo not shown) [Formula (8), reference compound] | C (less than 50%) | C (less than 50%) |
| Cc1ccc(C(=O)NCC(NC(=O)OCC(F)(F)C(F)(F)C(F)(F)F)C(C)C)cc1 (stereo not shown) [compound 13] | A (80% or more) |  |
| CC(C)C(CNC(=O)c1nc2ccc(F)cc2s1)NC(=O)OCC(F)(F)F (stereo not shown) [compound 37] | A (80% or more) |  |
| Cc1ccc(C(=O)NCC(NC(=O)OC2CCCCC2F)C(C)C)cc1 (stereo not shown) [compound 16] | A (80% or more) |  |
| Cc1ccc(C(=O)NCC(NC(=O)OCCC(F)(F)C(F)(F)C(F)(F)C(F)(F)F)C(C)C)cc1 (stereo not shown) [compound 14] | B (50% or more and less than 80%) |  |
| Cc1ccc(C(=O)NCC(NC(=O)OCCBr)C(C)C)cc1 (stereo not shown) [compound 4] | A (80% or more) |  |
| CCC(C)C(CNC(=O)c1nc2ccccc2s1)NC(=O)OCC(F)(F)F (stereo not shown) [compound 33] | A (80% or more) |  |
| CC(C)C(CNC(=O)c1nc2ccccc2s1)NC(=O)OCC(F)(F)F (stereo not shown) [compound 38] | A (80% or more) |  |
